Experimental data as given in PMC10317887, “Hypoglycaemia frequency and physiological response after double or triple doses of once-weekly insulin icodec vs once-daily insulin glargine U100 in type 2 diabetes: a randomised crossover trial” (Diabetologia, 2023).
Read-outs that look alike come from different tables or passages of the source.

How the values were obtained:
[1] = test system: individuals with type 2 diabetes; format: in vivo, human; conditions: for Mean PGnadir, treatment ratio (95% CI) icodec vs glargine U100 / Mean PGnadir, estimated geometric mean: all participants; for Time to recovery from PGnadir to PG5.5 mmol/l, estimated geometric mean: constant i.v. glucose 5.5 mg kg^−1 min^−1; for Time to recovery from PGnadir to PG5.5 mmol/l, estimated geometric mean / Glucose needed from PGnadir to PG5.5 mmol/l, estimated geometric mean: individuals with PG <3.3 mmol/l at initiation of recovery; for Time to decline from PG5.5 mmol/l to PG3.9 mmol/l, estimated geometric mean: individuals with PG decline to <3.0 mmol/l and/or hypoglycaemia symptoms; for Time to decline from PG5.5 mmol/l to PG3.0 mmol/l, estimated geometric mean: individuals with PG decline to <3.0 mmol/l; for Mean PGnadir in the subgroup analysis: subgroup PGnadir <3.0 mmol/l and/or symptoms
Method: During the two treatment periods, participants received once-weekly icodec for 6 weeks or once-daily glargine U100 for 11 days in randomised order. […] Treatment periods were separated by 35–49 days of washout following icodec and 4–11 days of washout following glargine U100. Icodec (4200 nmol/ml; Novo Nordisk, Bagsværd, Denmark) was administered s.c. in the left thigh at 20:00 hours by qualified site staff using a NovoPen 4 pen injector (Novo Nordisk). […] At the start of week 1, a one-time additional 100% icodec dose was administered to accelerate time to steady state, followed by a normal dose at week 2, a double dose at week 3 (prior to hypoglycaemia induction), no dose at week 4 (due to the double dose given the week before), a normal dose at week 5, and a triple dose at week 6 (prior to hypoglycaemia induction). Insulin glargine U100 (100 U/ml [600 nmol/ml]; Sanofi, Paris, France) was administered s.c. in the right thigh at 09:00 hours by qualified site staff using a SoloStar pen injector (Sanofi). A normal dose of once-daily glargine U100 was established during run in. Glargine U100 was administered at a normal dose for 3 days followed by a double dose on day 4 (prior to hypoglycaemia induction), no dose on day 5 (due to the double dose given the day before), then a normal dose for 5 days, and a triple dose on day 11 (prior to hypoglycaemia induction).
Hypoglycaemia induction was carried out during weeks 3 (double dose) and 6 (triple dose) for icodec and on days 4 (double dose) and 11 (triple dose) for glargine U100 while at steady state. To initiate hypoglycaemia induction, participants should not have experienced hypoglycaemia (PG <3.9 mmol/l) within 24 h or have any relevant medical condition that could confound the outcomes or pose unacceptable risk to the participant. Hypoglycaemia induction (Fig. 1b) was initiated at 16:00 hours 2 days after double/triple icodec dosing (44 h post dose) and on the day of double/triple glargine U100 dosing (7 h post dose). These timings were selected since they approximated the expected time of maximum glucose-lowering effect for both insulin products based on pharmacokinetic/pharmacodynamic modelling performed prior to the trial. For 7.5 h prior to hypoglycaemia induction, PG was kept at 5.5 mmol/l by variable i.v. infusion of glucose (20% wt/vol) or human soluble insulin (100 U/ml in 99.6 ml saline [154 mmol/l NaCl]). PG was measured by a Super GL2 Glucose Analyzer (Dr. Müller Gerätebau, Freital, Germany). Insulin infusion was terminated 60 min prior to hypoglycaemia induction at the latest. PG was maintained at 5.5 mmol/l±20% from 60 min to 30 min prior to hypoglycaemia induction and at 5.5 mmol/l±10% during the last 30 min prior to hypoglycaemia induction. Hypoglycaemia induction was initiated by terminating glucose infusion, thereby allowing PG to decline towards the minimum (nadir) PG target level of no less than 2.5 mmol/l. The handling of alternative scenarios, e.g. PGnadir >2.5 mmol/l, slow PG decline towards hypoglycaemia or slow recovery from hypoglycaemia, is described in electronic supplementary material (ESM) Methods. The investigator recorded if the PGnadir was <3.0 mmol/l or ≥3.0 mmol/l with hypoglycaemic symptoms. The PGnadir level was maintained for 15 min by variable i.v. glucose as needed. Subsequently, euglycaemia was restored by constant i.v. glucose (5.5 mg kg^−1 min^−1) until PG was 5.5 mmol/l, which was maintained until the next morning (between 07:00 hours and 09:00 hours) by variable i.v. glucose. During hypoglycaemia induction, participants remained fasted (except for water ad libitum) and stayed in a supine or semi-supine position (except when cognitive tests were performed). Participants stayed at the clinical site for at least 12 h following each hypoglycaemia induction experiment. […]

albumin = conditions: ref [9], [10]; cited from earlier work
From the text: In addition, the low insulin receptor binding affinity of icodec contributes to its long half-life by reducing the clearance rate, as insulin is mainly cleared by internalisation following binding to and activation of the insulin receptor [9, 10]. In case of excess amounts of icodec throughout the body, e.g ...

[2] = double dose, n=15 icodec, 13 glargine U100
[3] = triple dose, n=18 icodec, 22 glargine U100

**Q.** For insulin icodec, which “Time to full recovery from hypoglycaemia” value ([1]; constant i.v. glucose infusion at 5.5 mg kg^−1 min^−1, double and triple doses) is on record?
**A.** ≤ 30 min

**Q.** And the “Glucose needed from PGnadir to PG5.5 mmol/l, treatment ratio (95% CI) icodec vs glargine U100” value ([1]; double dose)?
**A.** 1.27 (1.05, 1.53)

**Q.** And the “Time to decline from PG5.5 mmol/l to PG3.0 mmol/l, treatment ratio (95% CI) icodec vs glargine U100” value ([1]; double dose)?
**A.** 0.64 (0.31, 1.33)

**Q.** What about the “Time to decline from PG5.5 mmol/l to PG3.9 mmol/l, treatment ratio (95% CI) icodec vs glargine U100” value ([1]; double dose) of the same substance?
**A.** 0.62 (0.48, 0.78)

**Q.** And the “Time to recovery from PGnadir to PG5.5 mmol/l, treatment ratio (95% CI) icodec vs glargine U100” value ([1]; double dose)?
**A.** 1.34 (1.16, 1.55)

**Q.** What about the “Mean PGnadir, treatment ratio (95% CI) icodec vs glargine U100” value ([1]; double dose) of the same substance?
**A.** 0.97 (0.94, 1.00)

**Q.** What about the “Mean PGnadir, estimated geometric mean” value ([1]; double dose, n=43 icodec, 42 glargine U100) of the same substance?
**A.** 3.2 mmol/L

**Q.** What about the “Time to recovery from PGnadir to PG5.5 mmol/l, estimated geometric mean” value [1, 2] of the same substance?
**A.** 28.3 min

**Q.** And the “Glucose needed from PGnadir to PG5.5 mmol/l, estimated geometric mean” value [1, 2]?
**A.** 141 mg/kg

**Q.** And the “Time to decline from PG5.5 mmol/l to PG3.9 mmol/l, estimated geometric mean” value ([1]; double dose, n=20 icodec, 19 glargine U100)?
**A.** 0.7 h

**Q.** What about the “Time to decline from PG5.5 mmol/l to PG3.0 mmol/l, estimated geometric mean” value ([1]; double dose, n=17 icodec, 15 glargine U100) of the same substance?
**A.** 2.9 h

**Q.** What about the “Mean PGnadir in the subgroup analysis, treatment ratio [95% CI] icodec vs glargine U100” value ([1]; double dose) of the same substance?
**A.** 1.01

**Q.** What about the “Mean PGnadir in the subgroup analysis” value ([1]; double dose) of the same substance?
**A.** 2.9 mmol/L

**Q.** What about the “Glucose needed from PGnadir to PG5.5 mmol/l, treatment ratio (95% CI) icodec vs glargine U100” value ([1]; triple dose) of the same substance?
**A.** 1.02 (0.83, 1.24)

**Q.** What about the “Time to decline from PG5.5 mmol/l to PG3.0 mmol/l, treatment ratio (95% CI) icodec vs glargine U100” value ([1]; triple dose) of the same substance?
**A.** 1.05 (0.68, 1.64)

**Q.** And the “Time to decline from PG5.5 mmol/l to PG3.9 mmol/l, treatment ratio (95% CI) icodec vs glargine U100” value ([1]; triple dose)?
**A.** 0.90 (0.78, 1.04)

**Q.** And the “Time to recovery from PGnadir to PG5.5 mmol/l, treatment ratio (95% CI) icodec vs glargine U100” value ([1]; triple dose)?
**A.** 1.02 (0.82, 1.28)

**Q.** And the “Mean PGnadir, treatment ratio (95% CI) icodec vs glargine U100” value ([1]; triple dose)?
**A.** 1.07 (1.04, 1.11)

**Q.** What about the “Mean PGnadir, estimated geometric mean” value ([1]; triple dose, n=38 icodec, 40 glargine U100) of the same substance?
**A.** 3.1 mmol/L

**Q.** And the “Time to recovery from PGnadir to PG5.5 mmol/l, estimated geometric mean” value [1, 3]?
**A.** 23.8 min

**Q.** And the “Glucose needed from PGnadir to PG5.5 mmol/l, estimated geometric mean” value [1, 3]?
**A.** 116 mg/kg

**Q.** What about the “Time to decline from PG5.5 mmol/l to PG3.9 mmol/l, estimated geometric mean” value ([1]; triple dose, n=20 icodec, 29 glargine U100) of the same substance?
**A.** 0.7 h

**Q.** What about the “Time to decline from PG5.5 mmol/l to PG3.0 mmol/l, estimated geometric mean” value ([1]; triple dose, n=20 icodec, 28 glargine U100) of the same substance?
**A.** 2.4 h

**Q.** And the “Mean PGnadir in the subgroup analysis, treatment ratio [95% CI] icodec vs glargine U100” value ([1]; triple dose)?
**A.** 1.05

**Q.** What about the “Mean PGnadir in the subgroup analysis” value ([1]; triple dose) of the same substance?
**A.** 2.9 mmol/L

**Q.** What about the Binding to albumin (albumin) of the same substance?
**A.** strong, reversible binding
